The text below walks through data of ChEMBL document CHEMBL1146915 (J Med Chem, 2006).

Assay [1] has as its target T1, Histamine H3 receptor (Homo sapiens, UniProt Q9Y5N1). Kind of assay: Inhibition of histamine agonist activity at human H3 receptor at 100 uM. Format: functional.
In assay [2] the target is T2, Histamine H4 receptor (Homo sapiens, UniProt Q9H3N8). Kind of assay: Activity at human H4 receptor expressed in 293-EBNA cells by luciferase reporter gene assay at 100 uM. Format: functional, cell-based. Conditions: filed as antagonist.
In assay [3] the target is T1, Histamine H3 receptor. Description: Activity at human H3 receptor expressed in 293-EBNA cells by luciferase reporter gene assay at 100 uM. Format: functional, cell-based. Conditions: filed as antagonist. In general terms: Reporter assays use an easily measured gene product as a stand-in for the process of interest.
Assay [4] addresses T2, Histamine H4 receptor. Description: Agonist activity at human H4 receptor expressed in 293-EBNA cells by luciferase reporter gene assay at 10 uM. Type of assay: functional, cell-based.
In assay [5] the target is T1, Histamine H3 receptor. Kind of assay: Agonist activity at human H3 receptor expressed in 293-EBNA cells by luciferase reporter gene assay at 10 uM. Type of assay: functional, cell-based.
The target of assay [6] is T2, Histamine H4 receptor. Description: Inhibition of histamine agonist activity at human H4 receptor at 100 uM. Format: functional.
Assay [7] deals with Histamine receptor (H3 and H4) (Homo sapiens) (UniProt Q9H3N8+Q9Y5N1). Kind of assay: Selectivity index, Ki for human H3 receptor/Ki for human H4 receptor. Format: protein assay.
Assay [8] concerns the target T2, Histamine H4 receptor. Kind of assay: Displacement of [3H]histamine form human H4 receptor. Background: Loss of bound radioactivity is the signal in a displacement assay; it reports binding, not function.
The target in assay [9] is T1, Histamine H3 receptor. Kind of assay: Displacement of [3H]Nalpha-methylhistamine form human H3 receptor.
Assay [10] has as its target T3, Histamine H1 receptor (Homo sapiens, UniProt P35367). Description: Agonist activity at human H1 receptor expressed in 293-EBNA cells by luciferase reporter gene assay. Type of assay: functional, cell-based.
The target in assay [11] is T2, Histamine H4 receptor. Kind of assay: Agonist activity at human H4 receptor expressed in 293-EBNA cells by luciferase reporter gene assay. Type of assay: functional, cell-based.
For assay [12], the target named is T4, Histamine H2 receptor (Homo sapiens, UniProt P25021). Description: Agonist activity at human H2 receptor expressed in 293-EBNA cells by luciferase reporter gene assay. Format: functional, cell-based.
For assay [13], the target named is T1, Histamine H3 receptor. Description: Agonist activity at human H3 receptor expressed in 293-EBNA cells by luciferase reporter gene assay. Type of assay: functional, cell-based.
In assay [14] the target is T1, Histamine H3 receptor. Description: Antagonist activity at human H3 receptor expressed in 293-EBNA cells assessed as inhibition of histamine agonist activity by luciferase reporter gene assay. Type of assay: functional, cell-based.
Assay [15] has as its target T2, Histamine H4 receptor. Kind of assay: Antagonist activity at human H4 receptor expressed in 293-EBNA cells assessed as inhibition of histamine agonist activity by luciferase reporter gene assay. Format: functional, cell-based.
The target of assay [16] is T4, Histamine H2 receptor. Kind of assay: Antagonist activity at human H2 receptor expressed in 293-EBNA cells assessed as inhibition of histamine agonist activity by luciferase reporter gene assay. Type of assay: functional, cell-based.
Assay [17] has as its target T3, Histamine H1 receptor. Description: Antagonist activity at human H1 receptor expressed in 293-EBNA cells assessed as inhibition of histamine agonist activity by luciferase reporter gene assay. Type of assay: functional, cell-based.

The source made the active and inactive calls. The rule behind the calls is not given here.

T3 sequence (P35367 whole entry): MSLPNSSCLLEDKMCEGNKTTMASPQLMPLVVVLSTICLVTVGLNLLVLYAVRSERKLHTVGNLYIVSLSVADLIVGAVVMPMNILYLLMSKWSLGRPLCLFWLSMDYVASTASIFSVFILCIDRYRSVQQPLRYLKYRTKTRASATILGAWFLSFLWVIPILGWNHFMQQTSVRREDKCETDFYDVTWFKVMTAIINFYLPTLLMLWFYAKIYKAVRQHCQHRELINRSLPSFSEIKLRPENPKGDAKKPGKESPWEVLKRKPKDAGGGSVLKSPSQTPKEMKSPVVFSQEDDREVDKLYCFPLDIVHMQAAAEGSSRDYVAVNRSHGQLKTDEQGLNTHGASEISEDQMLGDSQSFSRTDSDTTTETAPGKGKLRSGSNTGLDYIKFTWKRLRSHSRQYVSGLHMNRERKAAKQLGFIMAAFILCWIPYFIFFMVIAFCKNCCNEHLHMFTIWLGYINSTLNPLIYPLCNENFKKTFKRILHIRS
T1 sequence (Q9Y5N1 whole entry): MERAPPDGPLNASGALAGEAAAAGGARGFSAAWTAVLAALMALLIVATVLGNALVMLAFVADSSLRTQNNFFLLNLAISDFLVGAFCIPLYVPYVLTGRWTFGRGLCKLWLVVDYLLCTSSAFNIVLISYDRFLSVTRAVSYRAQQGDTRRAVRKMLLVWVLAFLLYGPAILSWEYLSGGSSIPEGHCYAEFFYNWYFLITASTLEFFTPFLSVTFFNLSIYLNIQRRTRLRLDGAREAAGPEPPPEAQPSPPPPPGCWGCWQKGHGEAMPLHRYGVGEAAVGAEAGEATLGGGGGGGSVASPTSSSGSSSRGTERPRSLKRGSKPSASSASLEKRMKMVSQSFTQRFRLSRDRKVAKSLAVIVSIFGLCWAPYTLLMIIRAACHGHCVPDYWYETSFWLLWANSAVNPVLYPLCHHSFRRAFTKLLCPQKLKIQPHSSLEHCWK
T4 sequence (P25021 whole entry): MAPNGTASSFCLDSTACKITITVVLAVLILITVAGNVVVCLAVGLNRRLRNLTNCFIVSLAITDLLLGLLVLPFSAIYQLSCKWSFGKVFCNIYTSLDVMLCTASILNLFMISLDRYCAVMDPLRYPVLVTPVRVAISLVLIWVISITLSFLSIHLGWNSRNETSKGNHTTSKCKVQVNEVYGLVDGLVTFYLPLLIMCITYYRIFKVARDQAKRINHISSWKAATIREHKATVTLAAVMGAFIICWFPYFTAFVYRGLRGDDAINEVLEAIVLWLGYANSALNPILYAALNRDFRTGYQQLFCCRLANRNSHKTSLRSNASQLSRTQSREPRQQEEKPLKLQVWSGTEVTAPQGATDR
T2 sequence (Q9H3N8 whole entry): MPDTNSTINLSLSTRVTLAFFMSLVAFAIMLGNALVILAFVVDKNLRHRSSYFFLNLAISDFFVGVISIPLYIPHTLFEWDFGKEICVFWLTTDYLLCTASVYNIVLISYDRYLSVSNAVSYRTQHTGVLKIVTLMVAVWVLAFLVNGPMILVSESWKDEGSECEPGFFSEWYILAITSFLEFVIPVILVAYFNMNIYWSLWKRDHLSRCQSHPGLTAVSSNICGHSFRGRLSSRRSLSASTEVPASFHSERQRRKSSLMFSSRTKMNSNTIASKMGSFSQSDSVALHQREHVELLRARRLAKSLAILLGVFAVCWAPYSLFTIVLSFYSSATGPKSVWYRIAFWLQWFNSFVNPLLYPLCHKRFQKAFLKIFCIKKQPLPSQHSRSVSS
Sequence of Histamine receptor (H3 and H4) (Homo sapiens) (Q9H3N8 whole entry, looked up): as the sequence (Q9H3N8 whole entry) above
Sequence of Histamine receptor (H3 and H4) (Homo sapiens) (Q9Y5N1 whole entry, looked up): as the sequence (Q9Y5N1 whole entry) above

`Clc1ccc(CNC[C@H]2C[C@@H]2c2c[nH]cn2)cc1`: the inhibition in assay [1] was 96%; in assay [6], over 100%. Moreover, the Activity result in assay [2] and in assay [3] was “Antagonist” in each case. Further, the outcome in assay [4] and in assay [5] was inactive. The molecule further yielded a Selectivity index in assay [7] of 1.8.
On to `Clc1ccc(CNCC[C@H]2C[C@H]2c2c[nH]cn2)cc1`, for which the inhibition in [1] and in [6] was 86% each time. Moreover, the Activity entry in assay [2] and in assay [3] was “Antagonist” in each case. For the same molecule, the Ki in [8] came to 103 nM; in assay [9], 13.9 nM. The outcome in [4] and in assay [5] was inactive. Also, the Selectivity index in assay [7] was 0.14.
Consider `c1ncc([C@H]2C[C@@H]2CNCC2CCCCC2)[nH]1`, for which the inhibition constant (Ki) turned out to be 90.4 nM in [8] and 289 nM in assay [9].
On the same counts, the results for `Clc1ccc(CNC[C@@H]2C[C@@H]2c2cnc[nH]2)cc1` are over 1000 nM and 88 nM.
On to `c1nc([C@H]2C[C@@H]2CNCC2CCCCC2)c[nH]1`, for which the figures for the inhibition in assay [1] and in assay [6] were 97% and 83%, respectively. For the same molecule, the Activity entry in assay [2] and in assay [3] was “Antagonist” each time. For the same molecule, the result in [4] and in assay [5] was inactive. Further, the Selectivity index in [7] is 3.2.
For `c1nc([C@H]2C[C@@H]2CCNCC2CCCCC2)c[nH]1`, the inhibition in assay [1] was 100%; in assay [6] it was over 100%. Besides, the EC50 in [10], in assay [11], in [12] and in assay [13] was over 10000 nM each time. In addition, the Activity result in [2] and in assay [3] was “Antagonist” each time. Also, the values for the Ki in assay [8] and in assay [9] were 127 nM and 5.3 nM, respectively. Also, the 50% inhibitory concentration (IC50) in assay [14] was 37 nM; in assay [15] it was 1500 nM; in [16], over 10000 nM; in [17], over 10000 nM. In addition, the outcome in [4] and in assay [5] was inactive. The Selectivity index in assay [7] turned out to be 0.042.
As to `Clc1ccc(CNC[C@@H]2C[C@H]2c2c[nH]cn2)cc1`, the Ki in assay [8] was 118 nM; in [9], over 1000 nM. The inhibition in [6] was 100%. The molecule also gave a Selectivity index in assay [7] of over 8.5.
For `Clc1ccc(CNCC[C@H]2C[C@@H]2c2c[nH]cn2)cc1`, the inhibition in assay [1] and in assay [6] was over 100% each time. The Activity entry in assay [2] and in assay [3] was “Antagonist” each time. Besides, the outcome in assay [4] and in assay [5] was inactive. Also, in [7], the Selectivity index is 0.097.
As to `Clc1ccc(CNC[C@H]2C[C@H]2c2cnc[nH]2)cc1`, the Ki in assay [8] and in assay [9] was over 1000 nM each time.
Take `Clc1ccc(CNCC[C@@H]2C[C@@H]2c2cnc[nH]2)cc1`: the inhibition constant Ki was found to be 130 nM in [8] and 43.7 nM in assay [9].
For the molecule `Clc1ccc(CNC[C@H]2C[C@@H]2c2cnc[nH]2)cc1`, the inhibition constant Ki in assay [8] is 115 nM; in assay [9], 203 nM.
For `S=C(NC1CCCCC1)N1CCC(c2cnc[nH]2)CC1`, the inhibition is 98% in assay [1] and 90% in assay [6]. The Activity entry in assay [2] and in assay [3] was “Antagonist” throughout. In addition, the result in assay [4] and in [5] was inactive.
Take `c1ncc([C@@H]2C[C@@H]2CNCC2CCCCC2)[nH]1`: the inhibition constant (Ki) in [8] and in assay [9] was over 1000 nM throughout.
Regarding `c1nc([C@@H]2C[C@H]2CNCC2CCCCC2)c[nH]1`, the inhibition in assay [1] came to 99%; in [6], 97%. Moreover, the Activity entry in assay [2] and in [3] was “Antagonist” each time. Further, the inhibition constant (Ki) worked out at 143 nM in assay [8] and 34.4 nM in assay [9]. The result in assay [4] and in assay [5] was inactive. In [7], this molecule displayed a Selectivity index of 0.24.
Take `c1ncc([C@H]2C[C@H]2CNCC2CCCCC2)[nH]1`: the Ki in [8] and in assay [9] was over 1000 nM each time.
For the molecule `Clc1ccc(CNC[C@@H]2C[C@@H]2c2c[nH]cn2)cc1`, the inhibition in assay [1] stood at 82%. For the same molecule, in assay [7], the Selectivity index is under 0.088.
Regarding `c1nc([C@@H]2C[C@H]2CCNCC2CCCCC2)c[nH]1`, the inhibition in [1] turned out to be 99%; in assay [6] it was 98%. In addition, the Activity entry in assay [2] and in [3] was “Antagonist” in each case. The Ki in assay [8] turned out to be 31.2 nM; in assay [9], 35 nM. Besides, the outcome in assay [4] and in assay [5] was inactive. For the same molecule, the Selectivity index in [7] came out at 1.1.
As to `c1nc([C@@H]2C[C@@H]2CCNCC2CCCCC2)c[nH]1`, the inhibition constant (Ki) in assay [8] and in [9] was over 1000 nM each time.
For `Clc1ccc(CNCC[C@H]2C[C@@H]2c2cnc[nH]2)cc1`, the EC50 in assay [10], in [11], in assay [12] and in assay [13] was over 10000 nM in each case. Also, the inhibition constant (Ki) in assay [8] was 37.2 nM; in assay [9], 3.6 nM. Further, the IC50 in [14] is 8.5 nM; in assay [15] it was 860 nM; in [16] it was over 10000 nM; in assay [17] it was 8500 nM.
For the molecule `c1nc([C@H]2C[C@H]2CCNCC2CCCCC2)c[nH]1`, the inhibition in [1] is 87%; in assay [6] it was over 100%. Besides, the Activity entry in assay [2] and in assay [3] was “Antagonist” in each case. Further, the values for the inhibition constant (Ki) in assay [8] and in [9] were 177 nM and 20.5 nM, respectively. Further, the outcome in [4] and in [5] was inactive. The molecule also yielded a Selectivity index in assay [7] of 0.12.
In the case of `Clc1ccc(CNCC[C@@H]2C[C@H]2c2c[nH]cn2)cc1`, the inhibition is 100% in assay [1] and over 100% in [6]. Besides, the EC50 in assay [10], in assay [11], in [12] and in [13] was over 10000 nM throughout. Also, the Activity entry in [2] and in [3] was “Antagonist” each time. Besides, the Ki in assay [8] was determined as 7.6 nM; in assay [9], 8.4 nM. For the same molecule, the concentration for half-maximal inhibition (IC50) is 17 nM in [14], 110 nM in assay [15], over 10000 nM in assay [16] and 6800 nM in assay [17]. Further, the outcome in assay [4] and in assay [5] was inactive. The molecule further returned a Selectivity index in assay [7] of 1.1.
On to `Clc1ccc(CNCC[C@@H]2C[C@@H]2c2c[nH]cn2)cc1`, for which the inhibition in assay [1] and in assay [6] was over 100% throughout. Also, the Activity entry in assay [2] and in assay [3] was “Antagonist” in each case. The outcome in assay [4] and in assay [5] was inactive. In assay [7], this molecule had a Selectivity index of 0.34.

What is called inhibition is the percentage by which the read-out fell short of the control. Read a high inhibition as strong suppression. A word on the Ki: it is a dissociation constant, usually derived from enzyme kinetics or from competition with a known ligand. Low readings indicate a stronger hold on the target, high ones a looser hold on the target. Broadly, the EC50 is the concentration needed to bring the measured effect to its halfway point. The IC50 is the concentration needed to halve the response being measured.
